Results from the CheMixHub viscosity set.
± gives the uncertainty stated by the source.

Assay: xn = mol fraction of the nth substance listed

O=C1CCCN1 + CC(O)CO
Conditions	viscosity [mPa·s]
298.15 K, 101.33 kPa, x1 = 0.06223	38.56 ± 0.81
298.15 K, 101.33 kPa, x1 = 0.09322	36.35 ± 0.75
298.15 K, 101.33 kPa, x1 = 0.1974	30.23 ± 0.63
298.15 K, 101.33 kPa, x1 = 0.2925	26.21 ± 0.55
298.15 K, 101.33 kPa, x1 = 0.3956	23.01 ± 0.49
298.15 K, 101.33 kPa, x1 = 0.5612	19.49 ± 0.43
298.15 K, 101.33 kPa, x1 = 0.5963	18.87 ± 0.4
298.15 K, 101.33 kPa, x1 = 0.7003	17.36 ± 0.36
298.15 K, 101.33 kPa, x1 = 0.7843	16.26 ± 0.34
298.15 K, 101.33 kPa, x1 = 0.8992	14.8 ± 0.31
298.15 K, 101.33 kPa, x1 = 0.9581	13.93 ± 0.29
308.15 K, 101.33 kPa, x1 = 0.05382	23.04 ± 0.48
308.15 K, 101.33 kPa, x1 = 0.1106	20.74 ± 0.43
308.15 K, 101.33 kPa, x1 = 0.1986	18.2 ± 0.38
308.15 K, 101.33 kPa, x1 = 0.3058	15.92 ± 0.33
308.15 K, 101.33 kPa, x1 = 0.3989	14.45 ± 0.31
308.15 K, 101.33 kPa, x1 = 0.512	12.98 ± 0.27
308.15 K, 101.33 kPa, x1 = 0.5975	12.23 ± 0.26
308.15 K, 101.33 kPa, x1 = 0.6998	11.39 ± 0.24
308.15 K, 101.33 kPa, x1 = 0.8034	10.71 ± 0.22
308.15 K, 101.33 kPa, x1 = 0.8984	9.939 ± 0.21
308.15 K, 101.33 kPa, x1 = 0.957	9.465 ± 0.2
313.15 K, 101 kPa, x1 = 0.0803	16.98 ± 0.15
313.15 K, 101 kPa, x1 = 0.1596	15.07 ± 0.13
313.15 K, 101 kPa, x1 = 0.2403	13.58 ± 0.11
313.15 K, 101 kPa, x1 = 0.3201	12.41 ± 0.1
313.15 K, 101 kPa, x1 = 0.4011	11.51 ± 0.093
313.15 K, 101 kPa, x1 = 0.481	10.79 ± 0.087
313.15 K, 101 kPa, x1 = 0.5617	10.17 ± 0.082
313.15 K, 101 kPa, x1 = 0.6394	9.657 ± 0.077
313.15 K, 101 kPa, x1 = 0.7192	9.2 ± 0.073
313.15 K, 101 kPa, x1 = 0.7993	8.742 ± 0.069
313.15 K, 101 kPa, x1 = 0.8723	8.338 ± 0.066
313.15 K, 101 kPa, x1 = 0.9579	7.845 ± 0.062
318.15 K, 101.33 kPa, x1 = 0.06032	14.2 ± 0.29
318.15 K, 101.33 kPa, x1 = 0.09973	13.37 ± 0.28
318.15 K, 101.33 kPa, x1 = 0.1931	11.82 ± 0.25
318.15 K, 101.33 kPa, x1 = 0.3054	10.43 ± 0.22
318.15 K, 101.33 kPa, x1 = 0.3986	9.613 ± 0.2
318.15 K, 101.33 kPa, x1 = 0.5124	8.834 ± 0.19
318.15 K, 101.33 kPa, x1 = 0.6012	8.369 ± 0.18
318.15 K, 101.33 kPa, x1 = 0.6899	7.95 ± 0.17
318.15 K, 101.33 kPa, x1 = 0.7926	7.488 ± 0.16
318.15 K, 101.33 kPa, x1 = 0.9004	7.031 ± 0.15
318.15 K, 101.33 kPa, x1 = 0.9614	6.774 ± 0.14

Cc1cc(C)cc(C)c1 + CCC(C)=O
307.35 K, 101.33 kPa
Conditions	viscosity [mPa·s]
x2 = 0.1256	0.549 ± 0.0096
x2 = 0.3266	0.5 ± 0.0092
x2 = 0.4175	0.479 ± 0.0091
x2 = 0.5581	0.443 ± 0.0088
x2 = 0.6213	0.428 ± 0.0086
x2 = 0.7133	0.409 ± 0.0085
x2 = 0.8019	0.389 ± 0.0083
x2 = 0.9035	0.368 ± 0.0082

[Cl-].[Cl-].[Cl-].[Cl-].[Sn+4] + CCCC(=O)OC
101 kPa, x1 = 0.335
Conditions	viscosity [mPa·s]
298.15 K	22.06 ± 0.56
323.15 K	4.849 ± 0.16

CCCCCC(CC)NC(=O)Nc1ccc(C)c(NC(=O)NC(CC)CCCCC)c1 (stereo not given) + CCCCC
Conditions	viscosity [mPa·s]
293.15 K, 100 kPa, x1 = 0.0002	86 ± 6

O=S=O + CCCCCCC
298.15 K, 101 kPa
Conditions	viscosity [mPa·s]
x1 = 0.0265	0.3767 ± 0.0099
x1 = 0.0489	0.3719 ± 0.0098

CC(C)Cc1ccccc1 + CCCCCCCCCCCC
viscosity [mPa·s], 102 kPa
Conditions	x1 = 0.1006	x1 = 0.2004	x1 = 0.2996	x1 = 0.3998	x1 = 0.5	x1 = 0.6001	x1 = 0.6993	x1 = 0.7997	x1 = 0.8998
293.15 K	1.41 ± 0.02	1.35 ± 0.02	1.28 ± 0.02	1.23 ± 0.02	1.17 ± 0.02	1.13 ± 0.02	1.09 ± 0.02	1.05 ± 0.02	1.03 ± 0.02
303.15 K	1.19 ± 0.02	1.14 ± 0.02	1.09 ± 0.02	1.05 ± 0.02	1 ± 0.02	0.97 ± 0.021	0.945 ± 0.021	0.915 ± 0.021	0.896 ± 0.021
313.15 K	1.02 ± 0.02	0.984 ± 0.021	0.949 ± 0.021	0.915 ± 0.021	0.88 ± 0.021	0.848 ± 0.021	0.823 ± 0.021	0.798 ± 0.021	0.781 ± 0.021
323.15 K	0.892 ± 0.021	0.861 ± 0.021	0.83 ± 0.021	0.8 ± 0.021	0.773 ± 0.021	0.749 ± 0.021	0.726 ± 0.021	0.706 ± 0.021	0.691 ± 0.021

CCC(C)CC + CCCCCCCCCCCCCCCC
298 K, 101.33 kPa
Conditions	viscosity [mPa·s]
x1 = 0.1071	2.635 ± 0.033
x1 = 0.2084	2.224 ± 0.028
x1 = 0.3095	1.87 ± 0.024
x1 = 0.4069	1.554 ± 0.02
x1 = 0.5054	1.274 ± 0.017
x1 = 0.6034	1.022 ± 0.014
x1 = 0.7044	0.7813 ± 0.011
x1 = 0.8037	0.5939 ± 0.0086
x1 = 0.902	0.4194 ± 0.0065

CCCCCCCCCCCCCCC + CCCCCCCCCCO
100 kPa, x1 = 0.2565
Conditions	viscosity [mPa·s]
298.2 K	6.68 ± 0.41
308.2 K	4.73 ± 0.29
318.2 K	3.47 ± 0.21

Cc1cc(C)cc(C)c1 + CCCCCCCCCCO
viscosity [mPa·s], 101 kPa
Conditions	298.15 K	308.15 K
x1 = 0.0752	9.427 ± 0.063	6.401 ± 0.045
x1 = 0.1354	7.818 ± 0.052	5.334 ± 0.038
x1 = 0.2083	6.204 ± 0.042	4.256 ± 0.03
x1 = 0.265	5.179 ± 0.035	3.572 ± 0.025
x1 = 0.3292	4.194 ± 0.028	2.936 ± 0.02
x1 = 0.3894	3.456 ± 0.023	2.445 ± 0.017
x1 = 0.4633	2.728 ± 0.018	1.942 ± 0.014
x1 = 0.5303	2.202 ± 0.015	1.595 ± 0.012
x1 = 0.6033	1.754 ± 0.012	1.279 ± 0.01
x1 = 0.6643	1.458 ± 0.011	1.084 ± 0.009
x1 = 0.7341	1.195 ± 0.009	0.901 ± 0.008
x1 = 0.7998	1.002 ± 0.009	0.768 ± 0.008
x1 = 0.8724	0.838 ± 0.008	0.669 ± 0.007
x1 = 0.9442	0.728 ± 0.008	0.606 ± 0.007

O=C(Cc1ccccc1)c1ccccc1 + CCCCCOC(C)=O
298.15 K, 101 kPa
Conditions	viscosity [mPa·s]
x1 = 0.0268	0.8294 ± 0.01
x1 = 0.0344	0.849 ± 0.011

O=S=O + CCCCN(CCCC)CCCC
303.15 K, 100 kPa
Conditions	viscosity [mPa·s]
x1 = 0.21	1.4
x1 = 0.35	3.2
x1 = 0.45	12.9

O=C1CCCN1 + CCCCO
Conditions	viscosity [mPa·s]
293.15 K, 101 kPa, x1 = 0.8554	10.75 ± 0.79
